The source of these data is ChEMBL document CHEMBL3044573, “Neurological activities of lapachol and its furano derivatives from Kigelia africana” (Med Chem Res, 2013).

The subject of series [1] is Mus musculus. The series is described as follows: Anxiolytic activity in albino Mus musculus (mouse) assessed as increase in time spent on open arm at 100 mg/kg, ip administered 30 min prior to testing by elevated-plus maze test relative to control. In kind it is functional, organism-based. Also noted: dose 100 mg/kg.
Series [2] has as its system Mus musculus. Kind of series: Anxiolytic activity in albino Mus musculus (mouse) assessed as increase in time spent on open arm at 50 mg/kg, ip administered 30 min prior to testing by elevated-plus maze test relative to control. The class given is functional, organism-based. Details: dose 50 mg/kg.
For series [3], the system named is Mus musculus. The series is described as follows: Anxiolytic activity in albino Mus musculus (mouse) assessed as increase in number of open arm enteries at 100 mg/kg, ip administered 30 min prior to testing by elevated-plus maze test relative to control. Details: dose 100 mg/kg. The class given is functional, organism-based.
In series [4] the test system is Mus musculus. The series is described as follows: Anxiolytic activity in albino Mus musculus (mouse) assessed as increase in number of open arm enteries at 50 mg/kg, ip administered 30 min prior to testing by elevated-plus maze test relative to control. In kind it is functional, organism-based. Also noted: dose 50 mg/kg.
Series [5] relates to Mus musculus. The series is described as follows: Antidepressant activity in albino Mus musculus (mouse) assessed as reduction in immobility time at 50 mg/kg, ip administered 30 min prior to testing by forced-swim test relative to control. Also noted: dose 50 mg/kg. The class given is functional, organism-based.
The subject of series [6] is Mus musculus. The series is described as follows: Stimulation of central nervous system in albino Mus musculus (mouse) assessed as increase in rearing behaviour at 100 mg/kg, ip administered 30 min prior to testing by open-feild test relative to control. In kind it is ADME, organism-based. Also noted: dose 100 mg/kg, route intraperitoneal. The following applies: in vivo, 0.5 h.

For series [7], the system named is Mus musculus. Kind of series: Stimulation of central nervous system in albino Mus musculus (mouse) assessed as increase in number of lines crossed at 100 mg/kg, ip administered 30 min prior to testing by open-feild test relative to control. The following applies: in vivo, 0.5 h. In kind it is ADME, organism-based. Also noted: dose 100 mg/kg, route intraperitoneal.

Series [8] relates to Mus musculus. Kind of series: Antidepressant activity in albino Mus musculus (mouse) assessed as reduction in immobility time at 100 mg/kg, ip administered 30 min prior to testing by forced-swim test relative to control. In kind it is functional, organism-based. Also noted: dose 100 mg/kg.
Series [9] concerns Mus musculus. Kind of series: Stimulation of central nervous system in albino Mus musculus (mouse) assessed as increase in rearing behaviour at 50 mg/kg, ip administered 30 min prior to testing by open-feild test relative to control. Details: dose 50 mg/kg, route intraperitoneal. In kind it is ADME, organism-based. To be noted: in vivo, 0.5 h.
For series [10], the system named is Mus musculus. Kind of series: Stimulation of central nervous system in albino Mus musculus (mouse) assessed as increase in number of lines crossed at 50 mg/kg, ip administered 30 min prior to testing by open-feild test relative to control. The class given is ADME, organism-based. Details: dose 50 mg/kg, route intraperitoneal. To be noted: in vivo, 0.5 h.
The test system of series [11] is Mus musculus. The series is described as follows: Anxiolytic activity in albino Mus musculus (mouse) assessed as decrease in rearing behaviour at 50 mg/kg, ip administered 30 min prior to testing by open-field test relative to control. The class given is functional, organism-based. Details: dose 50 mg/kg.
Series [12] concerns Mus musculus. The series is described as follows: Anxiolytic activity in albino Mus musculus (mouse) assessed as decrease in rearing behaviour at 100 mg/kg, ip administered 30 min prior to testing by open-field test relative to control. In kind it is functional, organism-based. Details: dose 100 mg/kg.
Series [13] deals with Mus musculus. The series is described as follows: Antidepressant activity in albino Mus musculus (mouse) assessed as reduction in immobility time at 15 mg/kg, ip administered 30 min prior to testing by forced-swim test relative to control. In kind it is functional, organism-based. Also noted: dose 15 mg/kg.

Calls of active or inactive are those of the source. The calls are words filed in the database; no cut-off is given here.

For `CC1(C)C=CC2=C(O1)C(=O)c1ccccc1C2=O`, the result with Mus musculus [1], in the series with Mus musculus [2], in the series on Mus musculus [3] and in the series with Mus musculus [4] was inactive.
Consider `CC(C)=CCC1=C(O)C(=O)c2ccccc2C1=O` [LAPACHOL], for which the outcome with Mus musculus [1] and in the series on Mus musculus [2] was inactive. Moreover, the result in the series on Mus musculus [5], in the series with Mus musculus [3] and with Mus musculus [4] was Active. The Activity entry in the series with Mus musculus [6] and in the series on Mus musculus [7] was “Toxic” each time.
As for `CC[C@H](CC[C@@H](C)[C@H]1CC[C@H]2[C@@H]3CC=C4C[C@@H](O)CC[C@]4(C)[C@H]3CC[C@]12C)C(C)C` [BETA-SITOSTEROL], the result with Mus musculus [1], with Mus musculus [2], with Mus musculus [8] and with Mus musculus [5] was inactive. The Activity result in the series with Mus musculus [9] and with Mus musculus [10] was “Toxic” throughout. The result in the series on Mus musculus [3] and in the series with Mus musculus [4] was Active.
On to `CC(=O)c1cc2c(o1)C(=O)c1ccccc1C2=O` [NAPABUCASIN], for which the outcome in the series with Mus musculus [11], in the series with Mus musculus [12], with Mus musculus [8] and in the series on Mus musculus [5] was Active. Also, in the series on Mus musculus [10], the Activity result is recorded as “Toxic”.
As for `CC(O)c1cc2c(o1)C(=O)c1ccccc1C2=O` (stereo unspecified), the result with Mus musculus [1], with Mus musculus [11], with Mus musculus [5] and in the series on Mus musculus [3] was Active. The Activity entry in the series with Mus musculus [6] and with Mus musculus [7] was “Toxic” each time.
Turning to `CN(C)CCCN1c2ccccc2CCc2ccccc21`, the outcome with Mus musculus [13] was Active.
